One test concerns the target Pim3 kinase (Homo sapiens, UniProt Q86V86). Nature of the test: Pim3 ATP depletion assay. It is filed as biochemical.
A further test concerns the target Pim1 kinase (Homo sapiens, UniProt P11309). The test can be described thus: Pim1 ATP depletion assay.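 Further: Luciferase-luciferin luminescence readout of residual ATP after PIM1 transfers phosphate to a peptide substrate, 40 µM ATP added, reaction run to roughly half ATP consumption.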 It is filed as biochemical. The following applies: Pim1 ATP depletion assay.
The target in another test is Pim2 kinase (Homo sapiens, UniProt Q9P1W9). The test can be described thus: Pim2 ATP depletion assay.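 Further: Luciferase-based luminescent readout of ATP remaining after PIM2 phosphorylates a BAD peptide, final 5 nM enzyme, 4 µM ATP, 10 µM peptide, 2.5% DMSO, run to roughly half ATP consumption.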 It is filed as biochemical.
The next test has as its system HEL 92.1.7 cells. Nature of the test: Cell proliferation assay (CellTiter-Glo), HEL 92.1.7. It is filed as cell-based. As to conditions: Homo sapiens. Here is the method: HEL 92.1.7 cells (ATTC No. TIB-180, an erythroleukemia line derived from malignant peripheral blood), MV4-11 cells (ATCC No. CRL-9591, a human acute monocytic leukemia line) and PC3 cells (ATCC No. CRL-1435, a human prostatic adenocarcinoma line) were cultured in RPMI1640 supplemented with 10% FBS, sodium pyruvate and antibiotics. Cells were plated in the same medium at a density of 1000 cells per well into 96 well tissue culture plates, with outside wells vacant, on the day of assay.
Test compounds supplied in DMSO were diluted into DMSO at 500 times the desired final concentrations before dilution into culture media to 2 times final concentrations. Equal volumes of 2× compounds were added to the cells in 96 well plates and incubated at 37° C. for 3 days.
After 3 days plates were equilibrated to room temperature and equal volume of CellTiter-Glow Reagent (Promega) was added to the culture wells. The plates were agitated briefly and luminescent signal was measured with luminometer. The percent inhibition of the signal seen in cells treated with DMSO alone vs. cells treated with control compound was calculated and used to determine EC50 values (i.e., the concentration of a test compound that is required to obtain 50% of the maximum effect in the cells) for tested compounds, as shown in Example 763.

Molecules are shown by their SMILES. Where two headings read alike, the source gives them in different places.

Chain of Pim2 kinase (Q9P1W9 whole entry): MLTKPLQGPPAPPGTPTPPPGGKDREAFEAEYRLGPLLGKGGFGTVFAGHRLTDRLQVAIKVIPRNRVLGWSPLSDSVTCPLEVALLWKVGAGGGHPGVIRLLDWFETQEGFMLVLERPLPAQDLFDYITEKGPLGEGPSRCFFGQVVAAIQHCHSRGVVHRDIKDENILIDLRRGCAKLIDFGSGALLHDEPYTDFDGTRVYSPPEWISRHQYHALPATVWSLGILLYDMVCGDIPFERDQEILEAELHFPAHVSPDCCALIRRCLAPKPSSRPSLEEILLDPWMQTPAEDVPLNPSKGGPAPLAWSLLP
Chain of Pim1 kinase (P11309 whole entry): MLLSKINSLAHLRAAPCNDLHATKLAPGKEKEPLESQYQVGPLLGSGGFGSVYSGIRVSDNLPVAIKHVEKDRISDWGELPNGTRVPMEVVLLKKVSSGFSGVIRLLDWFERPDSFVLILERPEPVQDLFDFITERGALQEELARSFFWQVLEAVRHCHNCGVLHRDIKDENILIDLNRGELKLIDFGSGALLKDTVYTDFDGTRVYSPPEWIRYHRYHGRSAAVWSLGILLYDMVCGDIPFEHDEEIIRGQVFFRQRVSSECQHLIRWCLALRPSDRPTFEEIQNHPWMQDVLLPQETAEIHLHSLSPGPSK

Regarding `CCN(CC)S(=O)(=O)c1ccc(C)c(-c2ccc(N)c(C(=O)Nc3cnccc3N3CCC[C@H](N)C3)n2)c1` [Example 329, 3-amino-6-(5-diethyl-sulfamoyl-2-methyl-phenyl)-pyridine-2-carboxylic acid ((S)-3-amino-3,4,5,6-tetra-hydro-2H-[1,4′]bipyridinyl-3′-yl)-amide], the IC50 on Pim3 kinase (read-out: IC50 (μM) PIM3), at Pim1 kinase (read-out: IC50 (μM) PIM1) and at Pim2 kinase (read-out: IC50 (μM) PIM2) was < 1 µM in each case. Also, the EC50 in the test with HEL 92.1.7 cells (read-out: EC50 (μM) HEL 92.1.7) lay within 5 to 10 µM.

On to `Cc1ccc(S(=O)(=O)N(C)C)cc1-c1ccc(N)c(C(=O)Nc2cnccc2N2CCC[C@H](N)C2)n1` [Example 330, 3-amino-6-(5-dimethyl-sulfamoyl-2-methyl-phenyl)-pyridine-2-carboxylic acid ((S)-3-amino-3,4,5,6-tetra-hydro-2H-[1,4′]bipyridinyl-3′-yl)-amide], for which the half-maximal inhibitory concentration (IC50) at Pim3 kinase (read-out: IC50 (μM) PIM3), at Pim1 kinase (read-out: IC50 (μM) PIM1) and at Pim2 kinase (read-out: IC50 (μM) PIM2) was < 1 µM in each case. The EC50 in the test on HEL 92.1.7 cells (read-out: EC50 (μM) HEL 92.1.7) is > 10 µM.

Take `Nc1ccc(-c2cccnc2Cl)nc1C(=O)Nc1cnccc1N1CCC[C@H](N)C1` [Example 331, 5-amino-2′-chloro-[2,3′]bi-pyridinyl-6-carboxylic acid ((S)-3-amino-3,4,5,6-tetra-hydro-2H-[1,4′]bipyridinyl-3′-yl)-amide]: the IC50 at Pim3 kinase (read-out: IC50 (μM) PIM3), at Pim1 kinase (read-out: IC50 (μM) PIM1) and on Pim2 kinase (read-out: IC50 (μM) PIM2) was < 1 µM each time. Further, the EC50 in the test with HEL 92.1.7 cells (read-out: EC50 (μM) HEL 92.1.7) lay within 1 to 5 µM.

For `CNC(=O)c1ccc(F)c(-c2ccc(N)c(C(=O)Nc3cnccc3N3CCC[C@H](N)C3)n2)c1` [Example 334, 3-amino-6-(2-fluoro-5-methylcarbamoyl-phenyl)-pyridine-2-carboxylic acid ((S)-3-amino-3,4,5,6-tetra-hydro-2H-[1,4′]bipyridinyl-3′-yl)-amide], the IC50 at Pim3 kinase (read-out: IC50 (μM) PIM3), at Pim1 kinase (read-out: IC50 (μM) PIM1) and at Pim2 kinase (read-out: IC50 (μM) PIM2) was < 1 µM in each case. In the test on HEL 92.1.7 cells (read-out: EC50 (μM) HEL 92.1.7), the EC50 is 5 to 10 µM.

With `Cc1ccc(S(=O)(=O)NC(C)(C)C)cc1-c1ccc(N)c(C(=O)Nc2cnccc2N2CCC[C@H](N)C2)n1` [Example 335, 3-amino-6-(5-tert-butyl-sulfamoyl-2-methyl-phenyl)-pyridine-2-carboxylic acid ((S)-3-amino-3,4,5,6-tetra-hydro-2H-[1,4′]bipyridinyl-3′-yl)-amide], the IC50 at Pim3 kinase (read-out: IC50 (μM) PIM3), at Pim1 kinase (read-out: IC50 (μM) PIM1) and on Pim2 kinase (read-out: IC50 (μM) PIM2) was < 1 µM in each case. The half-maximal effective concentration (EC50) in the test with HEL 92.1.7 cells (read-out: EC50 (μM) HEL 92.1.7) was 5 to 10 µM.

Turning to `COc1ccccc1-c1ccc(N)c(C(=O)Nc2cnccc2N2CCC[C@H](N)C2)n1` [Example 337], the half-maximal inhibitory concentration (IC50) at Pim3 kinase (read-out: IC50 (μM) PIM3), on Pim1 kinase (read-out: IC50 (μM) PIM1) and at Pim2 kinase (read-out: IC50 (μM) PIM2) was < 1 µM each time. For the same compound, in the test with HEL 92.1.7 cells (read-out: EC50 (μM) HEL 92.1.7), the EC50 lay in the range of 5 to 10 µM.

For the compound `Nc1ccc(-c2ccncc2F)nc1C(=O)Nc1cnccc1N1CCC[C@H](N)C1` [Example 339, 5-amino-3′-fluoro-[2,4′]bi-pyridinyl-6-carboxylic acid ((S)-3-amino-3,4,5,6-tetra-hydro-2H-[1,4′]bipyridinyl-3′-yl)-amide], the IC50 on Pim3 kinase (read-out: IC50 (μM) PIM3), on Pim1 kinase (read-out: IC50 (μM) PIM1) and on Pim2 kinase (read-out: IC50 (μM) PIM2) was < 1 µM each time. The EC50 in the test on HEL 92.1.7 cells (read-out: EC50 (μM) HEL 92.1.7) lay within 1 to 5 µM.

As to `Nc1ncc(-c2ccc(O)cc2)nc1C(=O)Nc1cnccc1N1CCCC(N)C1` (centres unmarked) [Example 358, 3-amino-6-(4-hydroxy-phenyl)-pyrazine-2-carboxylic acid (3-amino-3,4,5,6-tetra-hydro-2H-[1,4′]bipyridinyl-3′-yl)-amide], the IC50 on Pim3 kinase (read-out: IC50 (μM) PIM3), on Pim1 kinase (read-out: IC50 (μM) PIM1) and at Pim2 kinase (read-out: IC50 (μM) PIM2) was < 1 µM each time. In addition, the EC50 in the test on HEL 92.1.7 cells (read-out: EC50 (μM) HEL 92.1.7) was < 1 µM.

In the case of `Nc1cc(-c2ccc(N)c(C(=O)Nc3cnccc3N3CCC[C@H](N)C3)n2)ccn1` [Example 412, 5,2′-diamino-[2,4′]bipyridinyl-6-carboxylic acid ((S)-3-amino-3,4,5,6-tetrahydro-2H-[1,4′]bi-pyridinyl-3′-yl)-amide], the IC50 on Pim3 kinase (read-out: IC50 (μM) PIM3), on Pim1 kinase (read-out: IC50 (μM) PIM1) and on Pim2 kinase (read-out: IC50 (μM) PIM2) was < 1 µM in each case. Moreover, the half-maximal effective concentration (EC50) in the test with HEL 92.1.7 cells (read-out: EC50 (μM) HEL 92.1.7) fell in the range of 5 to 10 µM.

In the case of `COc1cccc(-c2ccc(N)c(C(=O)Nc3cnccc3N3CCC[C@H](N)C3)n2)n1` [Example 413, 5-amino-6′-methoxy-[2,2′]bi-pyridinyl-6-carboxylic acid ((S)-3-amino-3,4,5,6-tetrahydro-2H-[1,4′]bipyridinyl-3′-yl)-amide], the half-maximal inhibitory concentration (IC50) at Pim3 kinase (read-out: IC50 (μM) PIM3), at Pim1 kinase (read-out: IC50 (μM) PIM1) and on Pim2 kinase (read-out: IC50 (μM) PIM2) was < 1 µM throughout. In addition, the EC50 in the test with HEL 92.1.7 cells (read-out: EC50 (μM) HEL 92.1.7) is < 1 µM.

Consider `Nc1ccc(-c2cccnc2)nc1C(=O)Nc1cnccc1N1CCC[C@H](N)C1` [Example 414, 5-amino-[2,3′]bipyridinyl-6-carboxylic acid ((S)-3-amino-3,4,5,6-tetrahydro-2H-[1,4′]bi-pyridinyl-3′-yl)-amide], for which the IC50 on Pim3 kinase (read-out: IC50 (μM) PIM3), at Pim1 kinase (read-out: IC50 (μM) PIM1) and on Pim2 kinase (read-out: IC50 (μM) PIM2) was < 1 µM each time. Moreover, in the test on HEL 92.1.7 cells (read-out: EC50 (μM) HEL 92.1.7), the EC50 was in the range of 1 to 5 µM.

`Nc1ccc(-c2ccncc2)nc1C(=O)Nc1cnccc1N1CCC[C@H](N)C1` [Example 415, 5-amino-[2,4′]bipyridinyl-6-carboxylic acid ((S)-3-amino-3,4,5,6-tetrahydro-2H-[1,4′]bi-pyridinyl-3′-yl)-amide]: the IC50 at Pim3 kinase (read-out: IC50 (μM) PIM3), on Pim1 kinase (read-out: IC50 (μM) PIM1) and on Pim2 kinase (read-out: IC50 (μM) PIM2) was < 1 µM in each case. Moreover, the EC50 in the test with HEL 92.1.7 cells (read-out: EC50 (μM) HEL 92.1.7) is < 1 µM.

For `Nc1ccc(-c2cccnc2F)nc1C(=O)Nc1cnccc1N1CCC[C@H](N)C1` [Example 419, 5-amino-2′-fluoro-[2,3′]bi-pyridinyl-6-carboxylic acid ((S)-3-amino-3,4,5,6-tetrahydro-2H-[1,4′]bipyridinyl-3′-yl)-amide], the IC50 on Pim3 kinase (read-out: IC50 (μM) PIM3), on Pim1 kinase (read-out: IC50 (μM) PIM1) and on Pim2 kinase (read-out: IC50 (μM) PIM2) was < 1 µM in each case. Further, the EC50 in the test with HEL 92.1.7 cells (read-out: EC50 (μM) HEL 92.1.7) fell in the range of 1 to 5 µM.

Consider `COc1ncccc1-c1ccc(N)c(C(=O)Nc2cnccc2N2CCC[C@H](N)C2)n1` [Example 423, 5-amino-2′-methoxy-[2,3′]bi-pyridinyl-6-carboxylic acid ((S)-3-amino-3,4,5,6-tetrahydro-2H-[1,4′]bipyridinyl-3′-yl)-amide], for which the IC50 at Pim3 kinase (read-out: IC50 (μM) PIM3), on Pim1 kinase (read-out: IC50 (μM) PIM1) and on Pim2 kinase (read-out: IC50 (μM) PIM2) was < 1 µM each time. Further, the 50% effective concentration (EC50) in the test with HEL 92.1.7 cells (read-out: EC50 (μM) HEL 92.1.7) was 1 to 5 µM.

As for `Cc1cccc(C)c1-c1ccc(N)c(C(=O)Nc2cnccc2N2CCC[C@H](N)C2)n1` [Example 426, 3-amino-6-(2,6-dimethyl-phenyl)-pyridine-2-carboxylic acid ((S)-3-amino-3,4,5,6-tetra-hydro-2H-[1,4′]bipyridinyl-3′-yl)-amideQ], the IC50 on Pim3 kinase (read-out: IC50 (μM) PIM3), at Pim1 kinase (read-out: IC50 (μM) PIM1) and at Pim2 kinase (read-out: IC50 (μM) PIM2) was < 1 µM throughout. Also, the EC50 in the test on HEL 92.1.7 cells (read-out: EC50 (μM) HEL 92.1.7) is 5 to 10 µM.

With `COc1cc(F)ccc1-c1ccc(N)c(C(=O)Nc2cnccc2N2CCC[C@H](N)C2)n1` [Example 428, 3-amino-6-(4-fluoro-2-methoxy-phenyl)-pyridine-2-carboxylic acid ((S)-3-amino-3,4,5,6-tetra-hydro-2H-[1,4′]bipyridinyl-3′-yl)-amide], the half-inhibitory concentration (IC50) on Pim3 kinase (read-out: IC50 (μM) PIM3), at Pim1 kinase (read-out: IC50 (μM) PIM1) and on Pim2 kinase (read-out: IC50 (μM) PIM2) was < 1 µM in each case. Also, the EC50 with HEL 92.1.7 cells (read-out: EC50 (μM) HEL 92.1.7) lay within 5 to 10 µM.

Turning to `Cc1cc(Cl)ccc1-c1ccc(N)c(C(=O)Nc2cnccc2N2CCC[C@H](N)C2)n1` [Example 429, 3-amino-6-(4-chloro-2-methyl-phenyl)-pyridine-2-carboxylic acid ((S)-3-amino-3,4,5,6-tetra-hydro-2H-[1,4′]bipyridinyl-3′-yl)-amide], the half-maximal inhibitory concentration (IC50) at Pim3 kinase (read-out: IC50 (μM) PIM3), at Pim1 kinase (read-out: IC50 (μM) PIM1) and on Pim2 kinase (read-out: IC50 (μM) PIM2) was < 1 µM in each case. In the test on HEL 92.1.7 cells (read-out: EC50 (μM) HEL 92.1.7), the EC50 lay in the range of 5 to 10 µM.

For the compound `Cc1cc(F)ccc1-c1ccc(N)c(C(=O)Nc2cnccc2N2CCC[C@H](N)C2)n1` [Example 430, 3-amino-6-(4-fluoro-2-methyl-phenyl)-pyridine-2-carboxylic acid ((S)-3-amino-3,4,5,6-tetra-hydro-2H-[1,4′]bipyridinyl-3′-yl)-amide], the IC50 on Pim3 kinase (read-out: IC50 (μM) PIM3), on Pim1 kinase (read-out: IC50 (μM) PIM1) and at Pim2 kinase (read-out: IC50 (μM) PIM2) was < 1 µM throughout. Also, the EC50 in the test on HEL 92.1.7 cells (read-out: EC50 (μM) HEL 92.1.7) lay within 1 to 5 µM.

As for `COc1ncccc1-c1ccc(N)c(C(=O)Nc2cnccc2N2CCCCC2)n1` [Example 587, 5-amino-2′-methoxy-[2,3′]bi-pyridinyl-6-carboxylic acid (3,4,5,6-tetrahydro-2H-[1,4′]bipyridinyl-3′-yl)-amide], the half-inhibitory concentration (IC50) on Pim3 kinase (read-out: PIM3 IC50), at Pim1 kinase (read-out: PIM1 IC50) and at Pim2 kinase (read-out: PIM2 IC50) was < 1 µM throughout. The concentration giving a half-maximal response (EC50) in the test with HEL 92.1.7 cells (read-out: HEL 92.1.7 EC50) was < 1 µM.

Consider `Cc1ccccc1-c1cnc(N)c(C(=O)Nc2[nH]c(=O)ncc2N2CCCCC2)n1` [Example 591, 3-amino-6-o-tolyl-pyrazine-2-carboxylic acid (2-oxo-5-piperidin-1-yl-2,3-dihydro-pyrimidin-4-yl)-amide], for which the IC50 on Pim3 kinase (read-out: PIM3 IC50), on Pim1 kinase (read-out: PIM1 IC50) and on Pim2 kinase (read-out: PIM2 IC50) was < 1 µM throughout. Also, the EC50 with HEL 92.1.7 cells (read-out: HEL 92.1.7 EC50) lay in the range of 5 to 10 µM.

By IC50 is commonly meant the midpoint of a concentration-inhibition curve. The term EC50 denotes the concentration that produces a half-maximal response.
